Data published in paper PMC8301156, “Phenolic Extracts from Extra Virgin Olive Oils Inhibit Dipeptidyl Peptidase IV Activity: In Vitro, Cellular, and In Silico Molecular Modeling Investigations” (Antioxidants, 2021).

Columns and labels:
DPP-IV = details: cited from earlier work; for IC50: read-out: IC50, in vitro DPP-IV activity
[1] = biological target: T1, purified human recombinant DPP-IV enzyme (Homo sapiens, UniProt P27487); assay: In vitro DPP-IV activity assay (Gly-Pro-AMC fluorescence); format: biochemical; details: tested 1–1000 µM
T1 construct: purchased Cayman Chemicals
Method: The DPP-IV enzyme was provided by Cayman Chemicals (Ann Arbor, MI, USA), while the DPP-IV substrate (Gly-Pro-amido-4-methylcoumarin hydrobromide (Gly-Pro-AMC)) was from AnaSpec Inc. (Freemont, CA, USA). The experiments were carried out in triplicate in a half-volume 96-well solid plate (white) following conditions previously optimized. More details are available in the Supplementary Material.
To evaluate the DPP-IV inhibitory activity of both BUO and OMN, in vitro experiments were performed by using the purified human recombinant DPP-IV enzyme and H-Gly-Pro-AMC as a substrate. The reaction was monitored by measuring the fluorescence signals at 465 nm after excitation at 350 nm, deriving from the release of a free AMC group after the cleavage of H-Gly-Pro-AMC catalyzed by DPP-IV. […]
Tris-HCl, ethylendiaminetetraacetic acid (EDTA) and NaCl were from Sigma-Aldrich (St. Louis, MO, USA) The DPP-IV assay kit was from (Cayman Chemicals (Michigan, USA), while Gly- Pro-amido-4-methylcoumarin hydrobromide (Gly- Pro-AMC) was from AnaSpec (Freemont, CA, USA). […]
MA, USA). Tyrosol (≥98%), hydroxytyrosol (≥98%), and oleocanthal (≥95%) were from Merck Life Science S.r.l. (Milano, Italy); oleuropein (≥98%) was from Extrasynthese (Genay, France), whereas oleacin was from Phytolab
(Vestenbergsgreuth, Germany).
2.3. In Vitro DPP-IV Activity Assay
The DPP-IV enzyme was provided by Cayman Chemicals (Michigan, USA), while the DPP-IV substrate (H-Gly-Pro-AMC) was from AnaSpec Inc.
(Freemont, CA, USA). The experiments were carried out in triplicate in a half volume 96-well solid plate (white). […]
Subsequently, the samples were mixed and 50 μL of each reaction was transferred in each plate well. […] Fluorescence signals deriving from the release of free AMC were measured using a Synergy H1 fluorescence plate reader from BioTek (excitation/emission wavelength

T1 sequence (P27487 whole entry): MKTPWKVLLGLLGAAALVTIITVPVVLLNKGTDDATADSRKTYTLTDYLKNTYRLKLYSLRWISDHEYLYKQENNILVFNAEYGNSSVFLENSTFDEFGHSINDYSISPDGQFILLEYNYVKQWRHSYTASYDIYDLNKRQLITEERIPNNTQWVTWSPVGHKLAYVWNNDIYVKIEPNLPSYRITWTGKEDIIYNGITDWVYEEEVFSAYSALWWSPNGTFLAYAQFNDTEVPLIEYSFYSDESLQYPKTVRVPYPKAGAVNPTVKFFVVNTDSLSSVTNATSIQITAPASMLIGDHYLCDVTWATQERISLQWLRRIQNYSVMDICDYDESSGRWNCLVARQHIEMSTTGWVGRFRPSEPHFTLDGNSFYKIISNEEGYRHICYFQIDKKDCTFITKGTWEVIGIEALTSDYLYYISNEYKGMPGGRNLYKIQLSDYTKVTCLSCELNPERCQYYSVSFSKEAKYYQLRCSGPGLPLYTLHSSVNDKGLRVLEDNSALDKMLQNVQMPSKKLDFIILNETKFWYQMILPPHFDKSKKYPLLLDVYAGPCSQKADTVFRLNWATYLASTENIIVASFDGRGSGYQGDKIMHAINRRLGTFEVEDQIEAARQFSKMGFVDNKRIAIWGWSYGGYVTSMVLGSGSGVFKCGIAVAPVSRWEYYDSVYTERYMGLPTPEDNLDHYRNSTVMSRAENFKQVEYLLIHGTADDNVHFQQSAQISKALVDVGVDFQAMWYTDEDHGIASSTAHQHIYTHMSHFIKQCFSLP

| SMILES | activity against DPP-IV (in words) (DPP-IV) | further results |
| --- | --- | --- |
| O=c1cc(-c2ccc(O)cc2)oc2cc(O)cc(O)c12 [apigenin] |  | mode of DPP-IV inhibition (DPP-IV): noncompetitive |
| O.Oc1cc(O)c2c(c1)O[C@H](c1ccc(O)c(O)c1)[C@@H](O)C2 [catechin] | totally inactive |  |
| O=C(/C=C/c1ccc(O)c(O)c1)O[C@@H]1C[C@](O)(C(=O)O)C[C@@H](O)[C@H]1O [chlorogenic acid] | totally inactive |  |
| COc1cc(/C=C/C(=O)CC(=O)/C=C/c2ccc(O)c(OC)c2)ccc1O [curcumin] | more active than resveratrol | mode of DPP-IV inhibition (DPP-IV): competitive |
| Oc1cc(O)c2c(c1)O[C@H](c1ccc(O)c(O)c1)[C@H](O)C2 [epicatechin] | totally inactive |  |
| C[C@@H]1O[C@@H](OC[C@H]2O[C@@H](Oc3cc(O)c4c(c3)O[C@H](c3ccc(O)c(O)c3)CC4=O)[C@H](O)[C@@H](O)[C@@H]2O)[C@H](O)[C@H](O)[C@H]1O [eriocitrin] |  | IC50 (DPP-IV): 10.36 ± 0.09 µM |
| O=c1c(-c2ccc(O)cc2)coc2cc(O[C@@H]3O[C@H](CO)[C@@H](O)[C@H](O)[C@H]3O)cc(O)c12 [genistin] | totally inactive |  |
| COc1ccc([C@@H]2CC(=O)c3c(O)cc(O[C@@H]4O[C@H](CO[C@@H]5O[C@@H](C)[C@H](O)[C@@H](O)[C@H]5O)[C@@H](O)[C@H](O)[C@H]4O)cc3O2)cc1O [hesperidin] | totally inactive |  |
| OCCc1ccc(O)c(O)c1 [hydroxytyrosol] |  | IC50 [1]: 742 ± 35.7 µM |
| CC1(C)O[C@H]2CC(=O)OC[C@]23[C@H]2CC[C@@]4(C)[C@H](c5ccoc5)OC(=O)[C@H]5O[C@]54[C@]2(C)C(=O)C[C@@H]13 [limonin] | totally inactive |  |
| O=c1cc(-c2ccc(O)c(O)c2)oc2cc(O)cc(O)c12 [luteolin] |  | mode of DPP-IV inhibition (DPP-IV): noncompetitive |
| C[C@@H]1O[C@@H](O[C@H]2[C@H](Oc3cc(O)c4c(c3)O[C@H](c3ccc(O)cc3)CC4=O)O[C@H](CO)[C@@H](O)[C@@H]2O)[C@H](O)[C@H](O)[C@H]1O [naringin] | totally inactive |  |
| C[C@@H]1O[C@@H](OC[C@H]2O[C@@H](Oc3cc(O)c4c(c3)O[C@H](c3ccc(O)cc3)CC4=O)[C@H](O)[C@@H](O)[C@@H]2O)[C@H](O)[C@H](O)[C@H]1O [narirutin] | totally inactive |  |
| COc1ccc([C@@H]2CC(=O)c3c(O)cc(O[C@@H]4O[C@H](CO)[C@@H](O)[C@H](O)[C@H]4O[C@@H]4O[C@@H](C)[C@H](O)[C@@H](O)[C@H]4O)cc3O2)cc1O [neohesperidin] | totally inactive |  |
| C/C=C1/[C@H](O[C@@H]2O[C@H](CO)[C@@H](O)[C@H](O)[C@H]2O)OC=C(C(=O)OC)[C@H]1CC(=O)OCCc1ccc(O)c(O)c1 [oleuropein] |  | IC50 [1]: 472 ± 21.7 µM |
| O=C(O)c1ccc(O)c(O)c1 [protocatechuic acid] | totally inactive |  |
| Oc1ccc(/C=C/c2cc(O)cc(O)c2)cc1 [resveratrol] |  | mode of DPP-IV inhibition (DPP-IV): competitive; IC50 (DPP-IV): 0.0006 ± 0.0004 µM |
| C[C@@H]1O[C@@H](OC[C@H]2O[C@@H](Oc3c(-c4ccc(O)c(O)c4)oc4cc(O)cc(O)c4c3=O)[C@H](O)[C@@H](O)[C@@H]2O)[C@H](O)[C@H](O)[C@H]1O [rutin] | totally inactive |  |
| OCCc1ccc(O)cc1 [tyrosol] |  | IC50 [1]: 1110 ± 55.6 µM |
